Where two headings read alike, the source gives them in different places.
What was measured:
[1] = Comparative dissolution test in distillate water; type: physicochemical; conditions: UV-VIS
Protocol: The suspension was stirred for 1, 5, 10, 20 and 60 minutes and then it was filtered by 0.2 μm disposable syringe filter. Telmisartan concentration was determined by UV-VIS spectrophotometer (Agilent 8453).

[2] = Visual observation of wettability by stereomicroscope; type: physicochemical; conditions: one drop of distillate water on 0.1 mg powder
[3] = cited from earlier work
[4] = cited from earlier work; remark: listed apart in the source
[5] = in vivo; conditions: male, Wistar, rat, po, 30 mg/kg
Protocol: Both test substances were administered via gastric tube in a dosing volume of 5 ml/kg. The vehicle of the test items was sterile 0.9% NaCl solution and the suspension was kept homogenous by continuous stirring during treatment in order to minimize the error resulting from the sedimentation.
Male Wistar rats (purchased from Laboratory Animal Center, University of Szeged) were maintained on a standard pellet rodent diet (Bioplan Ltd, Isaszeg, Hungary) under temperature and light-controlled conditions with tap water available ad libitum. The acclimatization period was at least 4 days. […] All animals were fasting for 16 hours before oral treatment. […] Water was available immediately after treatment for all animals. […] Serum samples were prepared by centrifugation (7000 rpm, 10 min, 4° C.) of the clotted blood within 60 minutes and were stored at −20° C. till analysis.
An aliquot of 200 μl serum was combined with 20 μl of internal standard working solution and 1.2 ml acetonitrile for protein precipitation. The mixture was vortexed for 1 min and centrifuged at 12000 rpm for 10 min at 4° C. The supernatants were evaporated to dryness under a stream of nitrogen at 40° C. and reconstituted with 200 μl of water—methanol (50:50 v/v) and 20 μl was injected into the HPLC system.
Unpaired t-test was used to statistically compare the serum concentrations belonging to the same time points. […]

[6] = test system: plasma proteins, mainly albumin and α1—acid glycoprotein; conditions: cited from earlier work

For `CCCc1nc2c(C)cc(-c3nc4ccccc4n3C)cc2n1Cc1ccc(-c2ccccc2C(=O)O)cc1` [Telmisartan, 4′-[(1,4′-dimethyl-2′-propyl [2,6′-bi-1H-benzimidazol]-1′-yl)methyl]-[1,1′-biphenyl]-2-carboxylic acid], the “dissolved Telmisartan content” value [1] is given as “cannot be detected”, the wettability [2] is given as “stayed in their aggregated state” and the “reduction in AUC by food” value ([3]; 40 mg tablet) is given as “about 6%”. For the same compound, the absolute bioavailability ([3]; 40 mg) was 42%, the “reduction in AUC by food” value ([3]; 160 mg dose) was “about 20%” and the absolute bioavailability ([3]; 160 mg) was 58%. The “glucuronide share of the measured radioactivity in plasma” value ([3]; after a single dose) was “approximately 11%”, the “involvement of cytochrome P450 isoenzymes in metabolism” value ([3]; in vivo) was “not involved” and the “terminal elimination half life” value ([3]; in vivo) was “approximately 24 hours”. The total plasma clearance ([3]; in vivo) was greater than 800 mL/min, the volume of distribution ([3]; in vivo) was “approximately 500 liters” and the “amount found in urine, % of total radioactivity” value ([3]; intravenous 14C-labeled Telmisartan) was 0.91%. The “administered dose eliminated unchanged in feces via biliary excretion” value ([3]; intravenous or oral 14C-labeled Telmisartan) was greater than 97%, the “plasma concentrations with once daily dosing, % of peak plasma concentrations” value ([3]; once daily dosing) was 10-25% and the “amount found in urine, % of total radioactivity” value ([3]; oral 14C-labeled Telmisartan) was 0.49%. For the same compound, the “accumulation index in plasma” value ([3]; repeated once daily dosing) was 1.5 to 2.0, the solubility ([4]; hydrochloric acid) was “insoluble” and the solubility ([4]; strong acid) was “sparingly soluble”. For the same compound, the solubility ([4]; strong base) was “soluble”, the solubility ([4]; water and pH range of 3 to 9) was “practically insoluble” and the AUC [5] was 15700 ng·h/mL. For the same compound, the plasma protein binding [6] was greater than 99.5%.
